Source: PMC2765639 (PLoS Neglected Tropical Diseases, 2009)
Where two headings read alike, the source gives them in different places.

What was measured:
[1] = system: L. major promastigotes; test: L. major promastigote drug susceptibility assay (alamar blue, 384-well); type: cell-based, Leishmania major; settings: read-out: EC50 Ave ± SD, Lm
Description: Promastigotes were grown in vented T75 tissue culture flasks and maintained at 28°C. Promastigote cultures were initiated at 10^5 parasites per mL and subcultured every 3–4 days. L. major promastigote counts were performed in duplicate using a hemocytometer and particle counter (Beckman Coulter, Fullerton, CA). For HTS assays, L. major promastigote cultures were harvested during exponential growth phase (∼2.0–3.0×10^7 parasites/mL) and were not maintained past passage 20.
The final test compound concentration was 10 µM with a constant DMSO concentration of 1% in each assay well.
The L. major promastigote drug susceptibility assay was performed in a final volume of 25 µL using our previously described 384-well microtiter plate format,[39]. For automated HTS procedures, L. major promastigotes (5,000 parasites/22 µL) in complete growth medium were seeded into each well of the microtiter plates using a MAPC2 bulk dispenser (Titertek, Huntsville, AL). Test and control compounds (3 µL) were added to individual wells using a Velocity 11 V-prep (Menlo Park, CA) liquid handling system, equipped with a 384-well dispensing head, followed by centrifugation at 50 g for 1 min. […] Assay plates were allowed to incubate for 44 h at 28°C in the presence of 5% CO2. Five µL of alamar blue reagent were added to each assay plate well and incubated for 4 h at 28°C with 5% CO2. Data were captured on a Molecular Devices SpectraMax M5 (excitation560; emission590). Individual assay plate Z-factors were derived from the vehicle and positive controls, and data from plates were used only if Z-factors were >0.5 [50].
The assays were performed in duplicate with a final 10-point concentration range spanning 0.01–5.00 µM.

[2] = system: L. major axenic amastigote-like population; test: L. major axenic amastigote-like alamar blue assay (pH 4.9); type: cell-based, Leishmania major; settings: for EC50: Leishmania major, 144 h, pH 4.9, read-out: L. major axenic amastigote-like EC50 (AVE±SD) Confirmation Alamar Blue
[3] = system: A549; test: Mammalian cell line specificity assay (alamar blue); type: cell-based, human
Description: Mammalian cells were cultured and maintained according to ATCC specifications (ATCC, Manassas, VA). Cell line drug susceptibility assays were performed in final volumes of 25 µL using our previously described 384-well microtiter plate format,[39]. […] Test and control compounds were added to individual wells as described above. Vehicle and positive controls were 1% DMSO and 10% DMSO, respectively (final well concentrations). Assay plates were incubated for 44–46 h at 37°C in the presence of 5% CO2 and growth inhibitory effects were determined as described above. Five µL of alamar blue reagent was added to each well and incubated for 2–4 h. Data were captured as described above.

[4] = system: L. major promastigotes; test: Flow cytometer-based growth inhibition and cytotoxicity assay; settings: Leishmania major, 48 h, read-out: L. major promastigote EC50 (AVE±SD) Confirmation Flow Cytometry
[5] = Homo sapiens, A549, Table S1, PMLSC library samples, read-out: EC50 Ave ± SD, A549
[6] = Table S1, PMLSC library samples, 10-point 0.01–5.00 µM
[7] = Table S1, PMLSC library samples, read-out: EC50 Ave ± SD, A549

Row | SMILES | EC50 [1, 6] [nM] | EC50 [3, 7] [nM] | also measured
1 | Cc1[nH]c2c(Cl)cccc2c(=O)c1CN1CCCC1 [CID 728862] | – | – | EC50 ([1]; Leishmania major): 392 ± 50 nM; EC50 [2]: 4300 ± 800 nM; EC50 [3, 5]: > 5000 nM; EC50 [4]: 1770 ± 120 nM
2 | CCN(CC)CCN(C)C1CCC(c2ccccc2)CC1 (stereo not shown) [CID 742546] | – | – | EC50 ([1]; Leishmania major): 827 ± 116 nM; EC50 [2]: > 50000 nM; EC50 [3, 5]: > 5000 nM; EC50 [4]: 430 ± 300 nM
3 | Cc1cc(C)nc(/N=C2\SNSC2Cl)c1 (stereo not shown) [CID 757789] | – | – | EC50 ([1]; Leishmania major): 353 ± 25 nM; EC50 [2]: 3200 ± 800 nM; EC50 [3, 5]: > 5000 nM; EC50 [4]: 1940 ± 150 nM
4 | COc1cccc2c(=O)c(C/C=C(/C)Cl)c(C)[nH]c12 [CID 760847] | – | – | EC50 ([1]; Leishmania major): 108 ± 23 nM; EC50 [2]: 210 ± 90 nM; growth inhibitory activity in axenic amastigote-like assay ([2]; pH 4.9): comparable to amphotericin B; EC50 [3, 5]: > 5000 nM; EC50 [4]: 200 ± 50 nM
5 | Cc1ccc(S(=O)(=O)c2ccc(Oc3cccc(C)c3)cc2)cc1 [CID 786799] | – | – | EC50 ([1]; Leishmania major): 180 ± 35 nM; EC50 [2]: 3600 ± 130 nM; EC50 [3, 5]: > 5000 nM; EC50 [4]: 2220 ± 110 nM
6 | Cc1ccc(OCCCCn2ccnc2)c(Cl)c1 [CID 2851545] | – | – | EC50 ([1]; Leishmania major): 133 ± 35 nM; EC50 [2]: 11700 ± 500 nM; EC50 [3, 5]: > 5000 nM; EC50 [4]: 340 ± 480 nM
7 | O=C1C2ON(c3ccc(Br)cc3)C(c3ccccn3)C2C(=O)N1C1CCCCC1 (stereo not shown) [CID 2946668] | – | – | EC50 ([1]; Leishmania major): 515 ± 66 nM; EC50 [2]: 1200 ± 400 nM; EC50 [3, 5]: > 5000 nM; EC50 [4]: 350 ± 60 nM
8 | Cc1ccc2nc(Cl)c3nnnn3c2c1 [CID 4202676] | 767 ± 76 | > 5000 | –
9 | COC(=O)c1cccc(Cn2c(Cl)c(C=NNc3ccccc3C)sc2=O)c1 [CID 4271960] | 545 ± 193 | > 5000 | –
10 | Cc1nc([N+](=O)[O-])nn1C12CC3CC(CC(Cl)(C3)C1)C2 [CID 5032706] | 856 ± 33 | > 5000 | –
11 | CC1=C(C(=O)Nc2cc(-c3cccc(F)c3)[nH]n2)C2(CCCCC2)OC1=O [CID 5309827] | 382 ± 56 | > 5000 | –
12 | CCOC(=O)N=Nc1c2ccccc2c2nc3no[nH]c3nc12 [CID 5833488] | 788 ± 114 | 151 ± 10 | –
13 | COC(=O)c1ccc(-c2ccc(CNCC(O)c3ccccc3)o2)cc1 (stereo not shown) [CID 6602747] | 104 ± 27 | > 5000 | –
14 | CC(C)CCN(C)C1CCN(S(=O)(=O)c2cccc(C(F)(F)F)c2)CC1 [CID 6602880] | 10 ± 3 | > 5000 | –
15 | N=c1c2c(n(Cc3ccccc3)c3c1CCC3)CCC2 [CID 6603247] | 83 ± 5 | > 5000 | –
16 | O=C1C2CCN(CC2)C1Cc1ccc(OCCOc2ccccc2)cc1 (stereo not shown) [CID 6603672] | 274 ± 51 | > 5000 | –
17 | C[C@H]1C[C@@H](C)C(=O)[C@@H]([C@H](O)CC2CC(=O)NC(=O)C2)C1 [CID 6604199] | 5 ± 0.1 | 1900 ± 1400 | –
18 | c1ccc2c(c1)OC(CCCN1CCCCC1)c1ccccc1S2 (stereo not shown) [CID 9549148] | 137 ± 40 | > 5000 | –
19 | COC(=O)c1ccc2c(c1)C(C)(C)C(/C=C/c1ccc(OC)c(OC)c1OC)=[N+]2C [CID 9550329] | 50 ± 0.1 | > 5000 | –
20 | CCCCCCCCCCCCCCCC[n+]1ccc(/C=N/O)cc1 [CID 11293258] | 10 ± 2 | 1300 ± 76 | –
21 | O=C(COc1ccccc1F)NC1CCN(Cc2ccccc2)CC1 [CID 11834429] | 142 ± 32 | > 5000 | –
22 | Cc1ccccc1NC1=C/C(=N\S(=O)(=O)c2cccs2)c2ccccc2C1=O [CID 11834470] | 211 ± 47 | > 5000 | –

Row | SMILES | EC50 [1, 6] [nM] | EC50 [3, 7] [nM] | also measured
23 | COCCCN1CCN(c2nnc3n2-c2sc(Br)cc2C(c2ccccc2Cl)=NC3)CC1 [CID 11948854] | 607 ± 166 | > 5000 | –
24 | CCCCCCCCC[n+]1cccc2c3ccccc3ccc21 [CID 11957314] | 205 ± 21 | 1140 ± 53 | –
25 | CC[n+]1c(/C=C/N(C)c2ccccc2)sc2ccc(Cl)cc21.[O-][Cl+3]([O-])([O-])[O-] [CID 11958710] | 174 ± 32 | > 5000 | –
26 | CC(=O)O[C@@H]1C[C@H]2C(C)(C)C(=O)C=C[C@]2(C)[C@H]2CC[C@@]3(C)[C@H](c4ccoc4)OC(=O)[C@H]4O[C@]43[C@@]21C [CID 12004512] | 746 ± 211 | > 5000 | –
27 | CCC(/C=C1\Sc2ccc(OC)cc2N1CCO)=C\c1sc2ccc(OC)cc2[n+]1CCO [CID 12004742] | 491 ± 92 | > 5000 | –
28 | CCCCCCCCCCCCCCCC[n+]1cccc(C(=O)N(CC)CC)c1 [CID 12005597] | 629 ± 107 | 4070 ± 721 | –
29 | Cc1ccc(-c2cc3cccc[n+]3cc2-c2ccc(C)cc2)cc1 [CID 13481921] | 229 ± 34 | > 5000 | –
30 | Nc1nn(-c2ccccc2)c(N)c1N=Nc1ccc2c(c1)OCO2 [CID 15944965] | 849 ± 99 | > 5000 | –
31 | O=C(c1ccccc1)c1c2c(cc3sc4ccccc4[n+]13)-c1cccc3cccc-2c13 [CID 15944971] | 505 ± 54 | > 5000 | –
32 | CCOC(=O)c1c(-c2ccc(F)cc2)csc1NC(=O)CCN1CCOCC1 [CID 15945170] | 178 ± 36 | > 5000 | –
33 | Cc1ccc(-c2cc(-c3ccc(C)cc3)[n+](C)o2)cc1.[O-][Cl+3]([O-])([O-])[O-] [CID 15945780] | 184 ± 12 | > 5000 | –
34 | Cn1cc(CN2CCC(CO)CC2)c(-c2ccc(Oc3ccccc3)cc2)n1 [CID 16187569] | 165 ± 25 | > 5000 | –
35 | CC(C)(C)c1ccc(C(=O)C2CCCN(C3CCC3)C2)cc1 (stereo not shown) [CID 16187595] | – | – | EC50 ([1]; Leishmania major): 14 ± 13 nM; EC50 [2]: 2300 ± 200 nM; EC50 ([3]; Homo sapiens, A549, read-out: EC50 Ave ± SD, A549): > 5000 nM; EC50 [4]: 40 ± 10 nM
36 | O=C(c1ccc(-c2ccccc2)c(F)c1)C1CCCN(CCO)C1 (stereo not shown) [CID 16187738] | 511 ± 44 | > 5000 | –
37 | CC12CCC(C(=O)N(CCCN3CCN(Cc4ccccc4)CC3)C1=O)C2(C)C (stereo not shown) [CID 16189740] | 571 ± 113 | > 5000 | –
38 | CC(C)(C)c1ccc(-c2ncccc2O)cc1 [CID 16192568] | 301 ± 50 | > 5000 | –
39 | NCC12CC3CC(C1)CC(c1ccc(Cl)cc1)(C3)C2 [CID 16192591] | 357 ± 56 | 3750 ± 623 | –
40 | COc1ccc(/C=C/c2cc[n+](C(=O)Cc3ccccc3)cc2)cc1 [CID 16196001] | 50 ± 9 | > 5000 | –
41 | C[n+]1c(-c2ccccc2)cc(CCCCc2cc(-c3ccccc3)[n+](C)c(-c3ccccc3)c2)cc1-c1ccccc1.[O-][Cl+3]([O-])([O-])O [CID 16196006] | 703 ± 44 | > 5000 | –
42 | COc1ccc(-[n+]2c(C)cc(/C=C3\Sc4ccccc4N3C)cc2C)cc1 [CID 16196223] | 18 ± 2 | 2320 ± 205 | –
43 | Cc1cc(/C=C2\Sc3ccccc3N2C)cc(C)[n+]1CC1CCCO1 (stereo not shown) [CID 16196319] | 15 ± 1 | > 5000 | –
